Drawing on patent publication US20240182492A1, “AZAHETEROARYL COMPOUND, PREPARATION METHOD THEREFOR, AND APPLICATION THEREOF” (SHANGHAI BLUERAY BIOPHARMA CO., LTD., priority 2021, published 2024), this text covers IC50 for eleven molecules.

In experiment [1] the test system is B-cell non-Hodgkin lymphoma cells KARPAS-422. Briefly: Cell proliferation analysis, KARPAS-422, 13 days, CellTiter-Glo. Particulars: Karpas-422, 13 days. The format is cell-based, Human. On the procedure: Example 55: Cell Proliferation Analysis
Human B-cell non-Hodgkin lymphoma cells KARPAS-422 S were cultured in culture flasks using standard cell culture conditions. The culture medium contains 15% fetal bovine serum (FBS, Invitrogen, product number 10099-141), 1% penicillin/streptomycin solution (P/S) RPMI-1640 (Invitrogen, product number 11875), and the culture flask is placed and cultured in a sterile incubator at 37° C., 95% relative humidity, and 5% CO2. In order to detect the effect of PRC2 inhibitors on cell proliferation, cells in the exponential growth phase were seeded into 96-well plates (Corning, product number 3904) at a density of 1×10^4 cells/well, and 100 μL of medium was added to each well. Subsequently, the compounds disclosed herein at different concentrations were added to the wells seeded with cells (9 concentration gradients were set for each compound, and the highest detection concentration was 10 μM, 3-fold gradient dilution), and 2 repeats in parallel were set for each treatment concentration. The final concentration of DMSO is 0.5%. Then the number of surviving cells was counted with Vi-CELL (Beckman Coulter) every 3-4 days. The cells counted each time were seeded into a new 96-well plate at the same density (1×10^4 cells/well). The wells were supplemented with fresh medium to 100 μL, and different concentrations of the compound were added at the same time. The cells were cultured until the 13th day, on which 100 μL of CellTiter-Glo (CellTiter-GloCellTiter-GloCellTiter-GloCTG) (Promega, Product No. G7573) was added to each well. The plate was placed for 10-20 minutes in the dark at room temperature, and Molecular Devices and SpectraMax i3X were used to read the luminous signal. The data were fitted to a dose-response curve using GraphPad prisim5 and the IC50 values of the tested compounds were obtained.
A general note: ATP-based viability assays read luminescence as a measure of living cells.

In experiment [2] the target is T1, EED protein (full-length, His6 tag) binding to H3K27me3 polypeptide (Homo sapiens, UniProt O75530).
T1 construct: The full-length EED protein (441 amino acids) with His6 tag
T1 sequence (O75530 whole entry): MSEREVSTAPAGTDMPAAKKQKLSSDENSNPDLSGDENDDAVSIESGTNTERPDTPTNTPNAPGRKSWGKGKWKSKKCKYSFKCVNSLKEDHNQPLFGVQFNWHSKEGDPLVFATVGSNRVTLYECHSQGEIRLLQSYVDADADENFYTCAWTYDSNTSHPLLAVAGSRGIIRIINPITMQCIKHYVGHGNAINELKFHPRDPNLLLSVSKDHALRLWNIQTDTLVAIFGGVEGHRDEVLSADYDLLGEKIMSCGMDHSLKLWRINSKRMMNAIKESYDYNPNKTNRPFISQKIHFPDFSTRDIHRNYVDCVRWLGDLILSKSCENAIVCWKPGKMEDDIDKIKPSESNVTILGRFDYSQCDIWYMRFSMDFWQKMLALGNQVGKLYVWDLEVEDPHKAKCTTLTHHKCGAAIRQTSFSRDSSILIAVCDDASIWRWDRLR
Briefly: AlphaScreen evaluation of blocking the binding of EED to H3K27Me3. Particulars: EED / biotinylated H3K27me3 peptide competition. On the procedure: Example 53: Evaluation of the Effect of the Compound in Blocking the Binding of EED to H3K27Me3 by AlphaScreen (a-Screening) Method
First, compound solutions with different concentration gradients are prepared. Compound powder is dissolved in DMSO to form mother liquor. 1.5 μL of the compound mother liquor is taken to 198.5 μL reaction buffer (25 mM HEPES (pH 8.0), 50 mM NaCl, 0.015% Tween 20, 0.5% BSA) and the solution is mix uniformly, and then 3-fold gradient dilution is performed with the above buffer containing 0.75% DMSO. 9 different test concentrations are set for the same compound. 5 μL of compounds with different concentration gradients was taken to ProxiPlate-384 Plus, White detection plate (PerkinElmer, 6008280), and 2 parallel replicates are set for each concentration gradient.
Next, a binding blocking reaction is performed. The full-length EED protein (441 amino acids) with His6 tag is diluted to 60 nM with the above buffer, and the biotinylated polypeptide fragment H3K27me3 (amino acids 19-33) (Biotinylated-H3K27me3) is diluted to 75 nM with the same buffer. 5 μL of 75 nM peptide fragments and 5 μL of 60 nM protein are transferred to the testing wells containing the compound respectively. The testing plate is sealed with a film, and is incubated for 30 minutes at room temperature.
Finally, AlphaScreen method is used for detection. Before use, nickel chelate acceptor beads and streptavidin donor beads (Perkin Elmer, product number 6760619M) are mixed into the above reaction buffer at a ratio of 1:1, and then 5 μL of the above pre-mixed testing solution is added to each testing well. The final concentration of the donor beads and acceptor beads is 5 μg/mL. The testing plate is covered with tin foil and placed at room temperature in the dark for 1 hour. Signals are read using an AlphaScreen detector on a Spectra max i3. The AlphaScreen signal is normalized according to the readings obtained from the positive control (maximum signal control) and negative control (minimum signal control) to give the inhibition rate of different concentrations of the compound. After that, non-linear regression analysis was performed with GraphPad Prism 5, and dose-response equation Y=Bottom+(Top−Bottom)/(1+10^((Log IC50−X)*HillSlope)) is used to make an inhibition curve, obtaining the IC50 value of each compound. […]

Experiment [3] relates to trimethylation level of histone H3K27 in G401 cells. Description: ELISA (H3K27 trimethylation) analysis in G401 cells. The format is cell-based. Particulars: H3K27me3 normalized by H3. On the procedure:
Example 54: ELISA (H3K27 Trimethylation) Analysis
Representative compounds of the present disclosure are diluted in DMSO with 3-fold gradient, and 10 concentration gradients are tested per compound. The maximum testing concentration is 10 μM. The compound is diluted 200-fold into G401 cells cultured in 96-well plates (the final concentration of DMSO is 0.5%). After the cells are cultured for 72 hours, the trimethylation level of histone H3K27 is detected by ELISA method.
Histone extraction: compound-treated cells in a 96-well plate are washed 3 times with 1×PBS (10×PBS buffer (80 g NaCl (Sigma, Product No. S3014), 2 g KCl (Sigma, Product No. 60128), 14.4 g Na2HAPO4 (Sigma, Product No. S5136) and 2.4 g KH2PO4 (Sigma, Product No. P9791) are added to 1 L water, pH to 7.4), and 100 μL of 0.4N HCl is added to each well. The 96-well plate is placed at 4° C. and gently shaken for 2 hours to lyse the cells. The cell lysate is then neutralized with 80 μL of neutralization buffer (0.5M disodium hydrogen phosphate, pH 12.5, 2.5 mM DTT; 1% cocktail (Sigma, Product No. P8340) (mixing the cell lysate and neutralization buffer thoroughly).
ELISA detection method: the cell lysates are transferred in parallel to two 384-well assay plates (PerkinElmer, OptiPlate-384HB, Product No. 6007290). One plate is used to detect the trimethylation level of H3K27, and the other plate is used to measure the level of H3. PBS is adjusted to a final volume of 50 μL/well. The wells are coated overnight at 4° C. On the next day, the solution in the wells was discarded. TBST buffer (1 xTBS (10×TBS: 24.2 g Tris (Sigma, Product No. T6066) and 80 g NaCl (Sigma, Product No. S3014) are added to 1 L water, and pH is adjusted to 7.6 with HCl) and 0.1% Tween-20) is used to wash it 5 times, and the water is dried on absorbent papers. 70 μL of blocking buffer (TBST, 5% BSA) is added to the coated reaction wells, and the wells are incubated for 1 hour at room temperature. The blocking buffer was discarded, and the primary antibody is added (30 μL/well). The required primary antibodies are diluted with blocking buffer, and the dilution ratios were as follows: anti-H3K27me3 antibody (Cell Signaling Technology, Product No. 9733), 1:2000 dilution; anti-H3 antibody (Cell Signaling Technology, Product No. 4499), 1:10000 dilution. After adding the primary antibody, the wells are incubated at room temperature for 1 hour. After washing with TBST for 5 times, the water are dried. The secondary antibody (30 μL/well) is added to each reaction well, and the wells are incubated at room temperature for 1 hour. Secondary antibody (anti-rabbit antibody (Jackson ImmunoResearch, Product No. 111-035-003)) is used after dilution 2000-fold in blocking buffer. After 1 hour, it is washed with TBST and dried. 30 μL of ECL substrate (Pierce, Product No. 34080) is added to each well and centrifuged for 30 seconds at 2000 rpm. Signal of each sample is detected using Molecular Devices, SpectraMax. Data processing: H3K27 methylation readings are first normalized by H3 signal. 0.500 DM8)-treated sample is used as a control, and the inhibition percentage of the compound is calculated. The data is fitted to a dose-response curve using the GraphPad prisim5 program, obtaining the IC50 values of the test compounds.
On the technique in general: In an ELISA, binding on a coated surface is turned into a signal by an enzyme label.

Setting [4] is: Homo sapiens, KARPAS-422, 312 h.

As for `Cc1cc(-c2cnc(NCc3c(F)ccc4c3CCO4)n3cnnc23)c2ncnn2c1C(C)(C)O` [2-(8-(5-(((5-fluoro-2,3-dihydrobenzofuran-4-yl)methyl)amino)-[1,2,4]triazolo[4,3-c]pyrimidin-8-yl)-6-methyl-[1,2,4]triazolo[1,5-a]pyridin-5-yl)propan-2-ol], the half-inhibitory concentration (IC50) – broadly, the concentration that gives 50% inhibition – in experiment [1] (setting [4]) came to 0.0087 µM; in experiment [2], 0.0075 µM; in experiment [3] (Homo sapiens, G-401, 72 h), 0.0024 µM.

As to `CCC(O)c1ccc(-c2cnc(NCc3c(F)ccc4c3CCO4)n3cnnc23)c2ncnn12` (stereo not drawn) [1-(8-(5-(((5-fluoro-2,3-dihydrobenzofuran-4-yl)methyl)amino)-[1,2,4]triazolo[4,3-c]pyrimidin-8-yl)-[1,2,4]triazolo[1,5-a]pyridin-5-yl)propan-1-ol], the concentration for half-maximal inhibition (IC50) in experiment [1] (setting [4]) was 0.0032 µM; in experiment [2], 0.0065 µM; in experiment [3] (Homo sapiens, G-401, 72 h) it was 0.0026 µM.

Regarding `CC(O)(CF)c1ccc(-c2cnc(NCc3c(F)ccc4c3CCO4)n3cnnc23)c2ncnn12` (single isomer, unassigned) [Compound h], the values for the IC50 in experiment [1], in experiment [2] and in experiment [3] (72 hours) were 0.0025 µM, 0.0048 µM and 0.0012 µM, respectively.

In the case of `CC(O)(c1ccc(-c2cnc(NCc3c(F)ccc4c3CCO4)n3cnnc23)c2ncnn12)C(F)(F)F` (stereo not drawn) [1,1,1-trifluoro-2-(8-(5-(((5-fluoro-2,3-dihydrobenzofuran-4-yl)methyl)amino)-[1,2,4]triazolo[4,3-c]pyrimidin-8-yl)-[1,2,4]triazolo[1,5-a]pyridin-5-yl)propan-2-ol], the half-maximal inhibitory concentration (IC50) came out at 0.0088 µM in experiment [1] (setting [4]); 0.0048 µM in experiment [2]; 0.0019 µM in experiment [3] (Homo sapiens, G-401, 72 h).

With `OC(CF)(CF)c1ccc(-c2cnc(NCc3c(F)ccc4c3CCO4)n3cnnc23)c2ncnn12` [1,3-difluoro-2-[8-(5-{[(5-fluoro-2,3-dihydro-1-benzofuran-4-yl)methyl]amino]-[1,2,4]triazolo[4,3-c]pyrimidin-8-yl)-[1,2,4]triazol[1,5-a]pyridin-5-yl]propan-2-ol], the concentration for half-maximal inhibition (IC50) stood at 0.0041 µM in experiment [1] (setting [4]); 0.0069 µM in experiment [2]; 0.0011 µM in experiment [3] (Homo sapiens, G-401, 72 h).

Take `CC(C)(O)c1ncc(-c2cnc(NCc3c(F)ccc4c3CCO4)n3cnnc23)c2ncnn12` [2-(8-(5-(((5-fluoro-2,3-dihydrobenzofuran-4-yl)methyl)amino)-[1,2,4]triazolo[4,3-c]pyrimidin-8-yl)-[1,2,4]triazolo[1,5-c]pyrimidin-5-yl)propan-2-ol]: the IC50 stood at 0.0066 µM in experiment [1] (setting [4]); 0.0062 µM in experiment [2]; 0.0028 µM in experiment [3] (Homo sapiens, G-401, 72 h).

Consider `OC(c1ccc(-c2cnc(NCc3c(F)ccc4c3CCO4)n3cnnc23)c2ncnn12)(C(F)F)C(F)F` [1,1,3,3-tetrafluoro-2-(8-(5-(((5-fluoro-2,3-dihydrobenzofuran-4-yl)methyl)amino)-[1,2,4]triazolo[4,3-c]pyrimidin-8-yl)-[1,2,4]triazolo[1,5-a]pyridin-5-yl)propan-2-ol], for which the 50% inhibitory concentration (IC50) was determined as 0.0049 µM in experiment [1] (setting [4]); 0.003 µM in experiment [2]; 0.0012 µM in experiment [3] (Homo sapiens, G-401, 72 h).

Consider `CC(O)(c1ccc(-c2cnc(NCc3c(F)ccc4c3CCO4)n3cnnc23)c2ncnn12)C(F)F` (stereo not drawn) [1,1-difluoro-2-(8-(5-(((5-fluoro-2,3-dihydrobenzofuran-4-yl)methyl)amino)-[1,2,4]triazolo[4,3-c]pyrimidin-8-yl)-[1,2,4]triazolo[1,5-a]pyridin-5-yl)propan-2-ol], for which the half-maximal inhibitory concentration (IC50) was found to be 0.0048 µM in experiment [1] (setting [4]); 0.0051 µM in experiment [2]; 0.0015 µM in experiment [3] (Homo sapiens, G-401, 72 h).

With `CC(C)(O)c1c(F)cc(-c2cnc(NCc3c(F)ccc4c3CCO4)n3cnnc23)c2ncnn12` [2-(6-fluoro-8-(5-(((5-fluoro-2,3-dihydrobenzofuran-4-yl)methyl)amino)-[1,2,4]triazolo[4,3-c]pyrimidin-8-yl)-[1,2,4]triazolo[1,5-a]pyridin-5-yl)propan-2-ol], the IC50 in experiment [1] (setting [4]) worked out at 0.0146 µM; in experiment [2], 0.0057 µM; in experiment [3] (Homo sapiens, G-401, 72 h), 0.0059 µM.

As to `CCC(C)(O)c1ccc(-c2cnc(NCc3c(F)ccc4c3CCO4)n3cnnc23)c2ncnn12` (stereo not drawn) [2-(8-(5-(((5-fluoro-2,3-dihydrobenzofuran-4-yl)methyl)amino)-[1,2,4]triazolo[4,3-c]pyrimidin-8-yl)-[1,2,4]triazolo[1,5-a]pyridin-5-yl)butan-2-ol], the IC50 in experiment [1] (setting [4]) turned out to be 0.0052 µM; in experiment [2], 0.0075 µM; in experiment [3] (Homo sapiens, G-401, 72 h), 0.0021 µM.

Take `CC(C)(O)Cc1ccc(-c2cnc(NCc3c(F)ccc4c3CCO4)n3cnnc23)c2ncnn12` [1-(8-(5-(((5-fluoro-2,3-dihydrobenzofuran-4-yl)methyl)amino)-[1,2,4]triazolo[4,3-c]pyrimidin-8-yl)-[1,2,4]triazolo[1,5-a]pyridin-5-yl)-2-methylpropan-2-ol]: the IC50 in experiment [1] (setting [4]) was found to be 0.0102 µM; in experiment [2] it was 0.0113 µM; in experiment [3] (Homo sapiens, G-401, 72 h), 0.0032 µM.
